Reference: patent US12268660B2, “Oral pharmaceutical formulations of bitter compounds for pulmonary hypertension” (Aardvark Therapeutics Inc., priority 2018, dated 2025)
Counter-ions that a name gives are not always drawn. Like-named read-outs stand apart in the source and are kept apart here.

Legend:
[1] = test system: TAS2R subtypes; conditions: cited from earlier work
[2] = test system: primary pulmonary SMCs; test: Second experiment: primary pulmonary SMCs induced to contract with 10 μM phenylephernine (PE); assay type: cell-based; conditions: PE 10 μM; for synergy in combination with SIN: bitter agent with low SIN doses
Method: In a second experiment, primary pulmonary SMCs were induced to contract using 10 μM phenylephernine (PE). PE was added after a baseline reading. The test compounds were added after a second timepoint and 800-1300 cells were assayed per trace, starting with FIG. 6.

[3] = Solubility of test compounds (choice of control media); conditions: water or DMSO
[4] = test system: human primary smooth muscle cells (PVSMC); conditions: endothelin-1 100 nM; for synergy in combination with SIN: bitter agent 1 mM with low SIN doses (10 μM)
Method: An in vitro model using human primary smooth muscle cells (PVSMC) were stimulated to contract with 100 nM endothelin-1, then treated with various test compounds alone and in combination with the PDE-5 inhibitor sildenafil, approved to treat PAH. The concentration used were 3-CQL at 1 mM, DB at 1 mM, DS at 1 mM and SIN (sildenafil) at 10 μM. The controls were 0.5% and 1% DMSO in media because DB is water-soluble but DS, 3-CQL and SIN are DMSO soluble.

[5] = cited from earlier work
[6] = SIN by itself at low doses (10 μM)

Molecule	TAS2R subtypes activated (number) [1]	solubility [3]	synergy in combination with SIN [2]	synergy in combination with SIN [4]	also measured
quinine [reference compound]	9	–	–	–	–
CCCc1nn(C)c2c(=O)[nH]c(-c3cc(S(=O)(=O)N4CCN(C)CC4)ccc3OCC)nc12 [SIN, sildenafil, reference compound]	–	DMSO soluble	–	–	in vitro efficacy against PE-induced contraction ([2]; SIN at 100 μM): extremely effective; in vitro efficacy against PE-induced contraction [2, 6]: not effective; efficacy in reversal from peak contraction of the PVSMCs ([4]; SIN at 100 μM): extremely effective; efficacy in reversal from peak contraction of the PVSMCs [4, 6]: not effective
CC[N+](CC)(CC(=O)Nc1c(C)cccc1C)Cc1ccccc1 [DS, Denatonium Saccharide]	–	–	synergy	synergy	–
O=C(/C=C/c1ccc(O)c(O)c1)O[C@@H]1C[C@]2(O)C[C@@H](OC2=O)[C@@H]1O [3-CQL, 3-caffeoylquinic-1,5-lactone]	–	DMSO soluble	possibly	synergy	–
CN1CCc2cccc3c2[C@H]1Cc1ccc(O)c(O)c1-3 [Apomorphine, 5,6,6a,7-Tetrahydro-6-methyl-4H-dibenzo[de,g]quinoline-10,11-diol hydrochloride]	–	–	–	–	oral availability [5]: ~4%
CC[N+](CC)(CC(=O)Nc1c(C)cccc1C)Cc1ccccc1.O=C([O-])c1ccccc1 [DB, Denatonium Benzoate]	8	–	synergy	synergy	potency in reversal from peak contraction of the PVSMCs ([4]; DB alone (1 mM)): not potent
